The values below come from patent US20230095836A1, “SUBSTITUTED 5,6-DIPHENYL-3(2H)-PYRIDAZINONES FOR USE AS FUNGICIDES” (FMC Corporation, priority 2020, published 2023).

Structures are written as SMILES.

The test system of series [1] is Zymoseptoria tritici. In words: Test A: test solution sprayed on wheat seedlings, inoculated next day with Zymoseptoria tritici (wheat leaf blotch); disease rating (100 = 100% disease control, 0 = no control; dash = not tested). The series is classed as in vivo. Put shortly: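 Wheat seedlings sprayed to run-off with test solution, inoculated next day with Z. tritici spores, held 48 h at 24° C in saturated atmosphere, then 17 days at 20° C before rating. Scores are % disease control relative to controls (100 = full control, 0 = none).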

Series [2] deals with Puccinia recondita f. sp. tritici. In words: Test B: test solution sprayed on wheat seedlings, inoculated next day with Puccinia recondita f. sp. tritici (wheat leaf rust); disease rating (100 = 100% disease control, 0 = no control; dash = not tested). The series is classed as in vivo. An excerpt:
The resulting test suspensions were then used in Tests A-F. The test solution was sprayed to the point of run-off on wheat seedlings. […] A rating of 100 indicates 100% disease control and a rating of 0 indicates no disease control (relative to the controls). A dash (—) indicates the compound was not tested.

Series [3] relates to Blumeria graminis f. sp. tritici. In words: Test C: test suspension sprayed on wheat seedlings, inoculated next day with Blumeria graminis f. sp. tritici (wheat powdery mildew); visual disease rating (100 = 100% disease control, 0 = no control; dash = not tested). Type of series: in vivo. In a few lines:
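Wheat seedlings were sprayed to run-off with test suspension, then dusted next day with Blumeria graminis f. sp. tritici spores. After 8 days at 20 °C in a growth chamber, disease was rated visually as percent control relative to untreated controls.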

For series [4], the system named is Phakopsora pachyrhizi. Description: Test D: test solution sprayed on soybean seedlings, inoculated next day with Phakopsora pachyrhizi (Asian soybean rust); visual disease rating (100 = 100% disease control, 0 = no control; dash = not tested). Type of series: in vivo. Put shortly: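 Compounds predissolved in acetone (3% of final volume), suspended at ppm concentrations in 50/50 acetone/water with 250 ppm PEG400, sprayed to run-off on soybean seedlings. Inoculated next day with spores, 24 h saturated atmosphere at 22 °C, then 8 days growth chamber at 22 °C; visual rating, 100 = full control.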

In series [5] the test system is Botrytis cinerea. Description: Test E: test suspension sprayed on tomato seedlings, inoculated next day with Botrytis cinerea (tomato Botrytis); visual disease rating (100 = 100% disease control, 0 = no control; dash = not tested). The series is classed as in vivo. Put shortly:
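Tomato seedlings were sprayed to run-off and inoculated next day with Botrytis cinerea spores. They were held 48 h at 20° C in saturated humidity, then 3 days at 24° C. Disease control was rated visually against controls (100 = full, 0 = none).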

Series [6] relates to Alternaria solani. Description: Test F: test suspension sprayed on tomato seedlings, inoculated next day with Alternaria solani (tomato early blight); visual disease rating (100 = 100% disease control, 0 = no control; dash = not tested). Type of series: in vivo. Put shortly:
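Tomato seedlings sprayed to run-off with test suspension, inoculated next day with A. solani spores, held saturated at 27° C. for 48 h, then 20° C. for 3 days. Disease visually rated as % control relative to untreated controls.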

As a reminder, the pest or weed control is the degree to which the test organism was suppressed or injured, in per cent. The term melting point denotes the temperature, or range, at which the solid turns liquid. With `COc1cc(OC)c([N+](=O)[O-])c(-c2nn(C)c(=O)c(Cl)c2-c2c(F)cccc2F)c1` [Compound 37, 4-chloro-5-(2,6-difluorophenyl)-6-(3,5-dimethoxy-2-nitrophenyl)-2-methyl-3(2H)-pyridazinone], the melting point lay in the range of 223 to 227 °C. For the same compound, in series [1], the pest or weed control at 250 ppm came to 99%. The same compound returned a pest or weed control at 250 ppm in series [2] of 100%. In series [3], this compound had a pest or weed control at 250 ppm of 98%. In series [4], this compound showed a pest or weed control at 250 ppm of 100%. The pest or weed control at 250 ppm in series [5] came out at 99%. In addition, the pest or weed control at 250 ppm in series [6] is 99%.

With `COc1cc(OC)c(Cl)c(-c2nn(C)c(=O)cc2-c2ccc(F)cc2Cl)c1` [Compound 25, 6-(2-chloro-3,5-dimethoxyphenyl)-5-(2-chloro-4-fluorophenyl)-2-methyl-3(2H)-pyridazinone], the melting point was in the range of 121 to 125 °C. The pest or weed control at 50 ppm in series [1] is 100%. Besides, the pest or weed control at 50 ppm in series [2] turned out to be 100%. Further, the pest or weed control at 50 ppm in series [3] came to 98%. The compound also showed a pest or weed control at 50 ppm in series [4] of 94%. In series [5], this compound displayed a pest or weed control at 50 ppm of 100%. Moreover, the pest or weed control at 50 ppm in series [6] came out at 85%.

Take `Cn1nc(-c2ccc(F)cc2Cl)c(-c2ccc(F)cc2Cl)c(C#N)c1=O` [Compound 6, 5,6-bis(2-chloro-4-fluorophenyl)-2,3-dihydro-2-methyl-3-oxo-4-pyridazine-carbonitrile]: the melting point was 137 to 140 °C. This compound had a pest or weed control at 250 ppm in series [1] of 100%. Moreover, in series [2], the pest or weed control at 250 ppm turned out to be 100%. In addition, the pest or weed control at 250 ppm in series [3] was 92%. In series [4], this compound registered a pest or weed control at 250 ppm of 0%. In addition, in series [5], the pest or weed control at 250 ppm is 99%. The compound also registered a pest or weed control at 250 ppm in series [6] of 99%.

The compound `CCN1N=C(c2cc(OC)cc(OC)c2)C(c2c(F)cccc2F)CC1=O` (centres unmarked) [Compound 33, 5-(2,6-difluorophenyl)-6-(3,5-dimethoxyphenyl)-4,5-dihydro-2-ethyl-3(2H)-pyridazinone] came in with a melting point of 119 to 122 °C. For the same compound, in series [1], the pest or weed control at 250 ppm turned out to be 0%. This compound also showed a pest or weed control at 250 ppm in series [2] of 55%. Further, the pest or weed control at 250 ppm in series [3] was determined as 0%. Also, the pest or weed control at 250 ppm in series [4] is 0%. This compound gave a pest or weed control at 250 ppm in series [5] of 0%. This compound showed a pest or weed control at 250 ppm in series [6] of 0%.

In turn, `COc1cc(-c2nn(C)c(=O)cc2-c2c(F)cccc2F)cc(OC)c1Cl` [Compound 14, 6-(4-chloro-3,5-dimethoxyphenyl)-5-(2,6-difluorophenyl)-2-methyl-3(2H)-pyridazinone] returned a melting point of 221 to 225 °C. In addition, the pest or weed control at 250 ppm in series [1] was determined as 88%. Besides, the pest or weed control at 250 ppm in series [2] amounted to 80%. In series [3], this compound returned a pest or weed control at 250 ppm of 0%. Further, the pest or weed control at 250 ppm in series [4] is 0%. The pest or weed control at 250 ppm in series [5] was determined as 0%. Moreover, in series [6], the pest or weed control at 250 ppm was 0%.

For `COc1cc(OC)c(Cl)c(-c2nn(C)c(=O)c(Cl)c2-c2ccc(F)cc2Cl)c1` [Compound 58, 4-chloro-6-(2-chloro-3,5-dimethoxyphenyl)-5-(2-chloro-4-fluorophenyl)-2-methyl-3(2H)-pyridazinone], the melting point was in the range of 85 to 90 °C. Moreover, the pest or weed control at 50 ppm in series [1] amounted to 100%. The compound also showed a pest or weed control at 50 ppm in series [2] of 100%. In addition, the pest or weed control at 50 ppm in series [3] is 100%. In addition, in series [4], the pest or weed control at 50 ppm is 100%. Moreover, the pest or weed control at 50 ppm in series [5] is 99%. Further, the pest or weed control at 50 ppm in series [6] was found to be 100%.

Turning to `COc1cc(OC)cc(C2=NN(C)C(=O)CC2c2c(F)cccc2F)c1` (centres unmarked) [Compound 39, 5-(2,6-difluorophenyl)-6-(3,5-dimethoxyphenyl)-4,5-dihydro-2-methyl-3(2H)-pyridazinone], the melting point was 139 to 142 °C. The compound further showed a pest or weed control at 250 ppm in series [1] of 98%. This compound also displayed a pest or weed control at 250 ppm in series [2] of 86%. For the same compound, the pest or weed control at 250 ppm in series [3] was 69%. Further, the pest or weed control at 250 ppm in series [4] is 0%. In addition, in series [5], the pest or weed control at 250 ppm is 99%. Also, in series [6], the pest or weed control at 250 ppm was found to be 0%.

For `COc1ccc(Cl)c(-c2nn(C)c(=O)c(C)c2-c2ccc(F)cc2Cl)c1` [Compound 102, 5-(2-chloro-4-fluorophenyl)-6-(2-chloro-5-methoxyphenyl)-2,4-dimethyl-3(2H)-pyridazinone], the melting point is 149 to 150 °C. Besides, the pest or weed control at 50 ppm in series [1] amounted to 100%. In series [2], this compound returned a pest or weed control at 50 ppm of 100%. The pest or weed control at 50 ppm in series [3] was found to be 100%. Besides, the pest or weed control at 50 ppm in series [4] was 100%. Besides, the pest or weed control at 50 ppm in series [5] came to 98%. Also, the pest or weed control at 50 ppm in series [6] amounted to 100%.
